Read-outs that look alike come from different tables or passages of the source.
What was measured:
[1] = Lymphocyte viability assay (LCV, MTT) on murine splenocytes; assay type: cell-based; settings: mouse, splenocytes
Experimental: (§1) Preparation of splenocyte cell suspensions. […] The resulting supernatant was then transferred to another sterile centrifuge tube, and the cell concentration adjusted to 2×10^6 cells/ml dilution with TCM.
(§2) Determination of mycalamide A toxicity. The toxicity of mycalamide A on murine splenocytes and human PBL was determined using a colorimetric assay, based on the ability of viable cells to convert the colorless tetrazolium salt, 3-(4,5-dimethylthiazol-2yl)-2,5-diphenyl tetrazolium bromide (MTT) to a colored formazan product and trypan blue exclusion. For the colorimetric assay, a volume of 0.075 ml of an MTT solution (550 μg/ml of MTT in TCM) was added to test and control wells containing one of the populations of splenocytes or test wells and incubated for 5-6 hours following the initial incubation period. Microtiter plates were centrifuged at 100× g, supernatants carefully removed, and a volume of 0.20 ml of isopropyl alcohol was added to each well to dissolve the formazan crystals. The absorbance at 570 nm was determined for each well using an ELISA plate reader. […] As an additional parameter of toxicity, wells containing cultured lymphocytes with various dilutions of mycalamide A were examined with trypan blue, and the percentage of dye-excluding (viable) cells was determined.

[2] = test system: murine splenocytes; assay: as above; assay type: cell-based; settings: mitogen study, in words
Experimental: as §1, §2

[3] = T cell viability by trypan blue exclusion; assay type: cell-based, murine; settings: t cells, read-out: percentage of trypan blue-positive cells
Experimental: as §2
(§3) Compounds were added as indicated. Cells were harveste
(§4) Each data point represents the mean value o

[4] = test system: T cells; assay: T cell viability by trypan blue exclusion; assay type: cell-based, murine
Experimental: as §2, §3, §4

[5] = test system: allogeneic skin graft rejection, CBA mice; assay: Allogeneic skin graft rejection (BALB/c to CBA); assay type: in vivo, mouse; design: key to Graft Scores: 0: rejection; +: no rejection; settings: 0.01 mg/kg
Experimental: Allogeneic skin grafting. The effects of mycalamide A on the rejection of allogeneic skin grafts were determined using the BALB/c→CBA skin graft model. Skin grafts were prepared from BALB/c donors as follows: donors were sacrificed by cervical dislocation and hair shaved from back, sides, and torso. A depilatory agent was used to remove any remaining hair. The prepared skin area was then swabbed with a Betadine and alcohol solution. The skin was removed by making an incision at the base of the tail, and the skin was lifted and separated from the underlying muscle in two sections. The skin was then placed in a sterile petri dish containing sterile, ice cold normal saline. A sterile, #7 cord borer was used to punch out approximately 16 graft discs from each animal skin preparation. Recipient CBA mice were anesthetized with 1.5 cc ketamine:xylamine. The back of each recipient animal was shaved and a depilatory agent used to remove excess hair. The prepared area was swabbed with Betadine:alcohol, and a small plug of skin, approximately the size of the prepared grafts, was removed by excision. The skin graft plug was then placed in the center of the excised region and the resulting transplanted area sprayed with a barrier film (liquid skin). Animals were placed one to a cage and supplied with sterile food and water, ad libitum. Mice were observed each day for signs of rejection of the graft (a shrinking and thickening of the graft with eventual sloughing).

**Q.** With C=C1CC(OC)(C(O)C(=O)NC2OCOC3C2OC(CC(O)CO)C(C)(C)C3OC)OC(C)C1C (centres unmarked) [Mycalamide A, mycalamide A] as the molecule, how does the viability ([1]; MLR, 5.0 × 10^0 μg/ml, MTT, read-out: % Viability (LCV)) read?
**A.** 0%

**Q.** What about the viability ([1]; MLR, 5.0 × 10^1 μg/ml, MTT, read-out: % Viability (LCV)) of the same molecule?
**A.** 0%

**Q.** And the viability ([1]; MLR, 5.0 × 10^2 μg/ml, MTT, read-out: % Viability (LCV))?
**A.** 0%

**Q.** What about the viability ([1]; MLR, 5.0 × 10^-1 μg/ml, MTT, read-out: % Viability (LCV)) of the same molecule?
**A.** 55%

**Q.** What about the viability ([1]; MLR, 5.0 × 10^-2 μg/ml, MTT, read-out: % Viability (LCV)) of the same molecule?
**A.** 79%

**Q.** And the viability ([1]; MLR, 5.0 × 10^-3 μg/ml, MTT, read-out: % Viability (LCV))?
**A.** 66%

**Q.** What about the viability ([1]; MLR, 5.0 × 10^-4 μg/ml, MTT, read-out: % Viability (LCV)) of the same molecule?
**A.** 62%

**Q.** And the viability ([1]; MLR, 5.0 × 10^-5 μg/ml, MTT, read-out: % Viability (LCV))?
**A.** 63%

**Q.** And the viability ([1]; MLR, 5.0 × 10^-6 μg/ml, MTT, read-out: % Viability (LCV))?
**A.** 83%

**Q.** And the viability ([1]; MLR, 5.0 × 10^-7 μg/ml, MTT, read-out: % Viability (LCV))?
**A.** 71%

**Q.** And the viability ([1]; MLR, 5.0 × 10^-8 μg/ml, MTT, read-out: % Viability (LCV))?
**A.** 100%

**Q.** And the viability ([1]; MLR, 5.0 × 10^-9 μg/ml, MTT, read-out: % Viability (LCV))?
**A.** > 99%

**Q.** And the viability ([1]; MLR, 5.0 × 10^-10 μg/ml, MTT, read-out: % Viability (LCV))?
**A.** > 99%

**Q.** And the viability ([1]; MLR, 5.0 × 10^-11 μg/ml, MTT, read-out: % Viability (LCV))?
**A.** > 99%

**Q.** And the viability ([1]; MLR, 5.0 × 10^-12 μg/ml, MTT, read-out: % Viability (LCV))?
**A.** > 99%

**Q.** And the viability ([1]; MLR, 5.0 × 10^-13 μg/ml, MTT, read-out: % Viability (LCV))?
**A.** > 99%

**Q.** And the viability ([1]; MLR, 5.0 × 10^-14 μg/ml, MTT, read-out: % Viability (LCV))?
**A.** > 99%

**Q.** And the viability ([1]; MLR, 5.0 × 10^-15 μg/ml, MTT, read-out: % Viability (LCV))?
**A.** > 99%

**Q.** And the viability ([1]; MLR, 5.0 × 10^-16 μg/ml, MTT, read-out: % Viability (LCV))?
**A.** > 99%

**Q.** And the viability ([1]; MLR, 5.0 × 10^-17 μg/ml, MTT, read-out: % Viability (LCV))?
**A.** > 99%

**Q.** And the viability ([1]; MLR, 5.0 × 10^-18 μg/ml, MTT, read-out: % Viability (LCV))?
**A.** > 99%

**Q.** What about the viability ([1]; MLR, 5.0 × 10^-19 μg/ml, MTT, read-out: % Viability (LCV)) of the same molecule?
**A.** > 99%

**Q.** And the viability ([1]; mitogen study, 5.0 × 10^0 μg/ml, read-out: LCV, % viability)?
**A.** 1%

**Q.** And the viability ([1]; mitogen study, 5.0 × 10^1 μg/ml, read-out: LCV, % viability)?
**A.** 2%

**Q.** What about the viability ([1]; mitogen study, 5.0 × 10^2 μg/ml, read-out: LCV, % viability) of the same molecule?
**A.** 3%

**Q.** What about the viability ([1]; mitogen study, 5.0 × 10^-1 μg/ml, read-out: LCV, % viability) of the same molecule?
**A.** 4%

**Q.** And the viability ([1]; mitogen study, 5.0 × 10^-2 μg/ml, read-out: LCV, % viability)?
**A.** 3%

**Q.** What about the viability ([1]; mitogen study, 5.0 × 10^-3 μg/ml, read-out: LCV, % viability) of the same molecule?
**A.** 3%

**Q.** And the viability ([1]; mitogen study, 5.0 × 10^-4 μg/ml, read-out: LCV, % viability)?
**A.** 4%

**Q.** And the viability ([1]; mitogen study, 5.0 × 10^-5 μg/ml, read-out: LCV, % viability)?
**A.** 180%

**Q.** What about the “toxicity by LCV assay” value ([2]; 5×10^-5 μg/ml) of the same molecule?
**A.** no toxicity

**Q.** What about the “toxicity to the cells” value ([2]; greater than 5×10^-5 μg/ml) of the same molecule?
**A.** toxic to the cells

**Q.** What about the cytotoxicity at 20 h, 1e-06 µM ([3]; 1 pM, Experiment 1, 20 hours) of the same molecule?
**A.** < 2%

**Q.** What about the cytotoxicity at 20 h, 5e-06 µM ([3]; 5 pM, Experiment 1, 20 hours) of the same molecule?
**A.** < 2%

**Q.** What about the cytotoxicity at 20 h, 1e-05 µM ([3]; 10 pM, Experiment 2, 20 hours) of the same molecule?
**A.** < 2%

**Q.** And the “number of cells excluding trypan blue” value ([4]; 1 pM, Experiment 1, 20 hours)?
**A.** 1.39 × 10^6 cells

**Q.** And the “number of cells excluding trypan blue” value ([4]; 1 pM, Experiment 2, 20 hours)?
**A.** 1.45 × 10^6 cells

**Q.** What about the “percentage of trypan blue-positive cells” value ([4]; 1 pM, Experiment 2, 20 hours) of the same molecule?
**A.** < 2%

**Q.** And the “number of cells excluding trypan blue” value ([4]; 5 pM, Experiment 1, 20 hours)?
**A.** 1.41 × 10^6 cells

**Q.** And the “number of cells excluding trypan blue” value ([4]; 5 pM, Experiment 2, 20 hours)?
**A.** 1.68 × 10^6 cells

**Q.** What about the “percentage of trypan blue-positive cells” value ([4]; 5 pM, Experiment 2, 20 hours) of the same molecule?
**A.** < 2%

**Q.** What about the “number of cells excluding trypan blue” value ([4]; 10 pM, Experiment 2, 20 hours) of the same molecule?
**A.** 1.49 × 10^6 cells

**Q.** What about the “effect on T cell viability” value ([4]; trypan blue exclusion, in words) of the same molecule?
**A.** did not significantly affect the cell viability

**Q.** What about the “% Alive” value ([5]; Q2D × 7, 1-14 IP, D35) of the same molecule?
**A.** 0%

**Q.** And the “Graft Scores” value ([5]; Q2D × 7, 1-14 IP, D35)?
**A.** +

**Q.** And the mean rejection time ([5]; twice daily, intraperitoneally for 14 days)?
**A.** 17.8 days

**Q.** And the “effect on rejection of allogeneic skin grafts” value ([5]; twice daily, intraperitoneally for 14 days, in words)?
**A.** suppressed the normal rejection of allogeneic skin grafts

From patent US5298523A, “Method for treating transplant patients using mycalamide compounds” (priority 1992, dated 1994)
